Reference: patent US20140228311A1, “CRYSTALLIZATION OF IDARUBICIN HYDROCHLORIDE” (HERAEUS PRECIOUS METALS GMBH & CO. KG, priority 2011, published 2014)
Counter-ions that a name gives are not always drawn.

Assays:
Format in all cases: physicochemical
[1] = Storage of currently available idarubicin hydrochloride under typical storage conditions; conditions: hydrolysis of the sugar group, increase in 4-demethoxydaunomycinone
[2] = Storage stability of crystalline idarubicin hydrochloride in drying chamber, content analysed by HPLC; conditions: for Purity of idarubicin hydrochloride: HPLC
Description: The crystalline idarubicin hydrochloride obtained in Example 1 was studied for its stability relative to storage at temperatures of 25° C. and 40° C. for various time periods. For this purpose, aliquots of the obtained crystalline idarubicin hydrochlorides were encapsulated individually. One half of the aliquots were stored in a drying chamber at 25° C., the other half were stored in a different drying chamber at 40° C. After the times specified below, individual samples were taken from the drying chambers and the content of idarubicin hydrochloride was analyzed by high performance liquid chromatography (HPLC).

[3] = Thermodynamic stability of the crystalline form versus amorphous form; conditions: compared with amorphous idarubicin hydrochloride

Row | Structure (SMILES) | Decomposition during storage [1] | Stability for long storage ([2]; long storage under elevated temperatures) | Purity of idarubicin hydrochloride ([2]; storage at 25° C., 0 weeks) | Purity of idarubicin hydrochloride ([2]; storage at 25° C., 1 week) | Purity of idarubicin hydrochloride ([2]; storage at 25° C., 2 weeks) | Purity of idarubicin hydrochloride ([2]; storage at 25° C., 4 weeks) | Purity of idarubicin hydrochloride ([2]; storage at 25° C., 8 weeks) | Purity of idarubicin hydrochloride ([2]; storage at 25° C., 24 weeks) | Purity of idarubicin hydrochloride ([2]; storage at 40° C., 0 weeks) | Purity of idarubicin hydrochloride ([2]; storage at 40° C., 1 week) | Purity of idarubicin hydrochloride ([2]; storage at 40° C., 2 weeks) | Purity of idarubicin hydrochloride ([2]; storage at 40° C., 4 weeks) | Purity of idarubicin hydrochloride ([2]; storage at 40° C., 8 weeks) | Purity of idarubicin hydrochloride ([2]; storage at 40° C., 24 weeks) | Thermodynamic stability [3]
1 | CC(=O)[C@]1(O)Cc2c(O)c3c(c(O)c2[C@@H](O[C@H]2C[C@H](N)[C@H](O)[C@H](C)O2)C1)C(=O)c1ccccc1C3=O [idarubicin hydrochloride] | steady decomposition |  |  |  |  |  |  |  |  |  |  |  |  |  | 
2 | CC(=O)[C@]1(O)Cc2c(O)c3c(c(O)c2[C@@H](O[C@H]2C[C@H](N)[C@H](O)[C@H](C)O2)C1)C(=O)c1ccccc1C3=O [crystalline idarubicin hydrochloride, idarubicin hydrochloride] |  | extraordinarily high stability | 99.95 | 99.90 | 99.87 | 99.93 | 99.84 | 99.91 | 99.95 | 99.87 | 99.87 | 99.92 | 99.83 | 99.91 | thermodynamically more stable than amorphous idarubicin hydrochloride
